Data reported in patent publication US10238657B2, “Heterocyclic compounds for treating psoriasis” (JS INNOPHARM (SHANGHAI LTD.), priority 2015, dated 2019).
Converted amounts (≈) assume the structure as drawn.

What was measured:
[1] = tested on: chick chorioallantoic membrane; experiment: Chick chorioallantoic membrane (CAM) angiogenesis model; format: in vivo, chicken; settings: 100 μg/egg
Experimental: Fresh eggs were incubated for 6 successive days under 37° C. and 50% humidity. On the 6th day, live eggs were identified and taken out for window-opening. First, the chorioallantoic membrane was located with illumination. Droplets of Compound No. […] After air dry, the filter paper was placed on the chorioallantoic membrane gently without contacting big vessels. The window was sealed with a transparent adhesive tape. The eggs were incubated for 48 hours continuously. The transparent adhesive tape was then uncovered. The window was enlarged and photos were taken under a dissecting microscope (FIGS. 2 A-B). New vessels were counted based on the number of blood vessel branch points in each photo. Inhibitory rate=100−[(number of new blood vessels in treatment group at 24 h)/(number of new blood vessels in treatment group at 0 h)]/[(number of blood vessels in negative control group at 24 h)/(number of blood vessels in negative control group at 0 h)]×100%.

[2] = tested on: mouse vaginal epidermal cells; experiment: Effect on mitosis of mouse vaginal epidermal cells; format: in vivo; settings: 25 μl intravaginal once daily, 3 days, estradiol-treated mice, n = 6
Experimental: Except for the saline control group, sexually mature female mice were injected with estradiol subcutaneously at a dosage of 35 mg/kg for 3 successive days. On the fourth day, in-estrus mice were selected with vaginal smear. The mice were randomly divided into several groups: (a) saline control group, saline was used in each administration; (b) blank cream group, blank cream was used in each administration; (c) calcipotriol control group, calcipotriol in cream (5% w/w) was used in each administration; (d) four testing groups, Compound No 5 in cream at concentration of 0.5%, 1%, 2%, and 4% (w/w), respectively, was used in each application. 25 μl corresponding treatment was injected into the vagina of the mice once daily for 3 successive days. Colchicine (15 mg/Kg) was intraperitoneally injected 2 hours after the last dosing. The mice were sacrificed 6 hours after the injection of colchicine. The vaginal tissue was taken out for pathological examination. The number of mitosis in one hundred basal cells was counted, which was named as the mitotic index.

guinea pig ear epidermis = experiment: Propranolole hydrochloride-induced psoriasis in guinea pig model; format: in vivo; settings: 200 μl on both ears twice daily, 7 days
Experimental: Except for those in Saline control group, guinea pigs were treated with propranolole hydrochloride cream (5% w/w, 200 μl) uniformly applied on the back of both ears twice daily for four successive weeks. After four weeks, the […] were divided into several groups, namely, blank cream group, calcipotriol group, and four testing cream groups with Compound 5 at concentration of 0.5%, 1%, 2%, and 4% (w/w)), respectively. The guinea pigs in Saline control group were treated with saline on the back of both ears; the guinea pigs in other groups were treated with corresponding cream on the back of both ears (200 μl) twice daily for 7 successive days. The guinea pigs were examined during the experiment period and sacrificed 1 hour after the last dosing.

mouse tail epidermis = experiment: Effect on mouse tail epidermis (granular layer of tail scales); format: in vivo; settings: 100 μl once daily, 7 days, female mice, n = 10
Experimental: 70 female mice were randomly divided into several groups: (a) saline control group, saline was used in each administration; (b) blank cream group, blank cream was used in each administration; (c) calcipotriol control group, calcipotriol in cream (5% w/w) was used in each administration; (d) four testing groups, Compound No 5 in cream at 0.5%, 1%, 2%, and 4% (w/w), respectively, was used in each administration. 100 μl of corresponding treatment was applied to the same position on the tail of the mice once daily for seven successive days. The mice were sacrificed 1 hour after the last application. The treated skin parts were taken for pathological examination, and the tail scales of each mouse was assessed under a microscope. The number of scales having a granular layer in every 100 scales was counted, and the result was expressed as percentage.

HaCaT cells [3] = experiment: Morphological examination of the effect on HaCaT cell differentiation; format: cell-based, human
Experimental: HaCaT cells were cultured in DMEM culture medium containing 10% FBS under 37° C. and 5% CO2 concentration. When reaching 80% of the culture bottle area and after digestion by 0.25% trypsin, the cells were adjusted to a concentration of 4×10^4/ml and moved to a 6-well plate respectively (containing sterilized slide). Compound solutions were added. The cells were applied to the corresponding wells, and a blank control group (saline) was set. Both the sample groups and the control group were placed in a cell incubator at 37° C. Immumohistochemical staining was conducted after incubation at 48 h.
The imagine in FIG. 1A is dark brown, indicating large amount of keratin is present. […] Compound No. 5 underwent cornification (positive result).

HaCaT cells [4] = experiment: In-vitro screening with MTT method, inhibition of proliferation of HaCaT cells; format: cell-based, human; settings: Homo sapiens, HaCaT, about 48 hours incubation
Experimental: Compound No. 5 was dissolved in DMSO, and gradiently diluted with PBS to prepare solutions at concentration of 1000 μg/ml, 100 μg/ml, 10 μg/ml, 1 μg/ml, 0.1 μg/ml, and 0.01 μg/ml, respectively. Cis-platinum (CDDP) was used as positive control, and sample solutions were prepared with the same method. The sample solutions were added into a 96-well plate placed with the growth phase human immortalized keratinocyte (HaCaT) cells (Pharmacology Laboratory of Shanghai Institute of Pharmaceutical Industry), and were incubated for about 48 hours. The cell relative survival rate was determined by the MTT method, and calculated according to the following formula based on the light absorption value at […]. Cell relative survival rate=(Light absorption value of sample treatment group—background light absorption value)/(Light absorption value of DMSO treatment group—background light absorption value).

Question: `Cc1cnc(Nc2ccc(F)cc2Cl)nc1-c1cc2n(c1)CCN([C@H](CO)c1cccc(Cl)c1)C2=O` [Compound 5, (S)-7-(2-((2-chloro-4-fluorophenyl)amino)-5-methylpyrimidin-4-yl)-2-(1-(3-chlorophenyl)-2-hydroxyethyl)-3,4-dihydropyrrolo[1,2-a]pyrazin-1(2H)-one] was tested. Which “Number of new blood vessels 0 h” value ([1]; 0 h, n = 3) did it give?
Answer: Its value is 18.83 ± 5.60.

Question: And the “Number of new blood vessels 48 h” value ([1]; 48 h, n = 3)?
Answer: The value was 16.00 ± 5.73.

Question: What about the “Inhibitory rate (%)” value ([1]; 48 h, versus PBS group) of the same molecule?
Answer: The value was 125.76%.

Question: And the “Mitotic cell number/total cell number (%)” value ([2]; cream 0.5% (w/w))?
Answer: The value was 18.33 ± 1.86 %.

Question: What about the “Mitotic cell number/total cell number (%)” value ([2]; cream 1% (w/w)) of the same molecule?
Answer: Its value is 15.00 ± 3.35 %.

Question: What about the “Mitotic cell number/total cell number (%)” value ([2]; cream 2% (w/w)) of the same molecule?
Answer: The value was 14.83 ± 2.48 %.

Question: What about the “Mitotic cell number/total cell number (%)” value ([2]; cream 4% (w/w)) of the same molecule?
Answer: The value was 14.50 ± 3.62 %.

Question: And the “Epidermal thickness (μm)” value (guinea pig ear epidermis; cream 0.5% w/w)?
Answer: The value was 190.31 ± 17.89 μm.

Question: And the “Epidermal thickness (μm)” value (guinea pig ear epidermis; cream 1% w/w)?
Answer: The value was 180.74 ± 11.05 μm.

Question: What about the “Epidermal thickness (μm)” value (guinea pig ear epidermis; cream 2% w/w) of the same molecule?
Answer: Its value is 156.59 ± 13.25 μm.

Question: What about the “Epidermal thickness (μm)” value (guinea pig ear epidermis; cream 4% w/w) of the same molecule?
Answer: The value was 128.96 ± 13.61 μm.

Question: And the “Scales quantity in granular layer * 100%” value (mouse tail epidermis; cream 0.5% (w/w))?
Answer: Its value is 42.40 ± 3.03 %.

Question: And the “Scales quantity in granular layer * 100%” value (mouse tail epidermis; cream 1% (w/w))?
Answer: Its value is 47.00 ± 5.29 %.

Question: What about the “Scales quantity in granular layer * 100%” value (mouse tail epidermis; cream 2% (w/w)) of the same molecule?
Answer: Its value is 50.80 ± 7.50 %.

Question: What about the “Scales quantity in granular layer * 100%” value (mouse tail epidermis; cream 4% (w/w)) of the same molecule?
Answer: Its value is 58.80 ± 7.64 %.

Question: And the “Differentiation of HaCaT cells (keratin, cornification)” value (HaCaT cells [3]; 100 μg/ml, 48 h, inverted microscope x200, FIG. 1A)?
Answer: The value was “induced differentiation of HaCaT cells”.

Question: What about the “Test Results, effect on HaCat cell differentiation” value (HaCaT cells [3]; 48 h incubation, immunohistochemical staining) of the same molecule?
Answer: The value was “Positive”.

Question: And the IC50 (HaCaT cells [4])?
Answer: Its IC50 is 544 µg/mL (≈ 1030 µM).
